Measured values published in patent US20200157563A1, “METHODS OF PRODUCING HUMAN CANCER CELL MODELS AND METHODS OF USE” (The Broad Institute, Inc., priority 2017, published 2020).
“And” between values parts separate entries of the source, which are not always exact repeats. Identical values can stand only once.

System: TERT promoter or exon 1
Assay: Efficiency of tested Cas9 guide sequences (indel formation after RNP delivery)
Type: cell-based, human
Conditions: Cas9 guide targeting TERT promoter or exon 1, replicates 1 and 2 listed separately
Experimental: Guide sequences for all genes were determined by empirically testing multiple guides per gene for cutting efficiency (on the extreme end, we tested around 40 Cas9 guide sequences for TERT before settling on one that works).
Applicants also determined guide RNAs for introducing indels at the TERT gene (FIG. 12).
Mutations were first engineered into CDKN2A (‘C’), BRAF (‘B’), and TERT (‘T’) (FIGS. 19A-19G). Lesions in these three genes happen early in melanoma pathogenesis and are exceptionally common, co-occurring events (Akbani et al. Cell 161:1681-1696 (2015)) that have been hypothesized to suffice for malignant transformation (Shain et al. Nat Rev Cancer 16:345-358 (2016); Shain et al. N Engl J Med 373:1926-1936 (2015)). After electroporation of Cas9 ribonucleoprotein complex (RNP) (Rimm et al. Am J Pathol 154:325-329 (1999)) targeting CDKN2A exon 2, the only exon shared by both p16 and p14 protein products, small insertions and deletions (‘indels’) in the gene underwent natural positive selection during cell culture from a 90-95% allele frequency at day three to nearly 100% by day 42 (FIG. 19A). Into these CDKN2A knockout (‘C’) melanocytes, Applicants next introduced the BRAF V600E mutation by co-delivering Cas9 RNP targeting BRAF exon 15 together with a homologous DNA donor encoding the V600E mutation. Recombinant adeno-associated virus (rAAV) was used to deliver the DNA donor (Rimm et al. Am J Pathol 154:325-329 (1999)) in order to increase the low editing efficiency over plasmid or single-stranded oligodeoxynucleotide donors (data not shown; Dever et al. Nature 539:384-389 (2016)). Over roughly 150 days in culture, the BRAF V600E allele increased from a frequency of 6% at day 3 to nearly 100% at day 155 (FIG. 19B). Finally, into these CDKN2A knockout, BRAF V600E mutant (‘CB’) melanocytes, Applicants introduced the −124C>T (also known as C228T) TERT promoter mutation by co-delivery of Cas9 RNP targeting TERT exon 1 together with a homologous DNA donor encoding TERT −124C>T. The −124C>T TERT promoter mutation allele shifted from a stable allele frequency of 3-5% over the first 30 days in culture to roughly 50% by day 75, and stayed at roughly 50% for more than 300 days of continuous culture (FIG. 19C; this 50% frequency is further discussed below). Engineering the TERT promoter mutation was the most technically difficult of these three mutations, and required testing forty different Cas9 guide sequences to identify a potent reagent for making double stranded breaks near the TERT promoter locus (Table 9), possibly due to the high G:C content or closed chromatin state at this locus (Yeh et al. Nat Commun 8:644 (2017)).
Cas9 protein, tracrRNA, and crRNAs (‘guides’, Table 20) were purchased and prepared according to manufacturer's instructions (IDT). To generate RNP complexes, 3-6 μg Cas9 and 45 pmol previously annealed crRNA:trRNA were incubated together for 10 minutes at 25° C. before delivery by electroporation. To target CDKN2A, two crRNAs were mixed at a molar ratio of 1:1 (22.5 pmol crRNA 1: 22.5 pmol crRNA 2) and incubated with 3 μg Cas9.
Electroporation was performed using the Lonza Nucleofector 4D System (program: EO-208) and P3 Primary Cell Nucleofector Kit (Lonza), according to manufacturer's instructions, with optional inclusion of 100 pmol electroporation enhancer (IDT 1075916). After electroporation, cells were incubated with 80 μL of warm media for 10 minutes at 37° C. to enhance recovery and were directly transferred into a tissue culture plate.
DNA was extracted using QuickExtract DNA Extraction Solution following recommended guidelines (Epicentre). Target genomic loci were amplified using gene-specific primers (Table 21) that included universal handles for later attachment of barcoded Illumina adaptors using an additional round of PCR. […]

21 (guide AAACTCGCGCCGCGAGGAGA; chemistry not given here) [compound 21]
% Indel Post-Editing (3 days post-editing): 0.5362% and 0.5957%

7 (guide GAGGGGCTGGGAGGGCCCGG; chemistry not given here) [compound 7]
% Indel Post-Editing (3 days post-editing): 0.2257% and 0.1728%

8 (guide GGGGGCTGGGCCGGGGACCC; chemistry not given here) [compound 8]
% Indel Post-Editing (5 days post-editing): 0.1929% and 0.225%

17 (guide GAAACTCGCGCCGCGAGGAG; chemistry not given here) [compound 17]
% Indel Post-Editing (3 days post-editing): 0.03391% and 0.163%

15 (guide GCCCCGTCCCGACCCCTCCC; chemistry not given here) [compound 15]
% Indel Post-Editing (5 days post-editing): 0.375%

12 (guide GCCGGGGACCCGGGAGGGGT; chemistry not given here) [compound 12]
% Indel Post-Editing (5 days post-editing): 0.1682% and 0.08339%

5 (guide GGGCTGGGAGGGCCCGGAGG; chemistry not given here) [compound 5]
% Indel Post-Editing (3 days post-editing): 0.3738% and 0.4065%

2 (guide GTCCCCGGCCCAGCCCCCTC; chemistry not given here) [compound 2]
% Indel Post-Editing (3 days post-editing): 0.29% and 0.6087%

10 (guide GCTGGGCCGGGGACCCGGGA; chemistry not given here) [compound 10]
% Indel Post-Editing (5 days post-editing): 0.3155% and 0.389%

31 (guide CCACGTTCGTGCGGCGCCTG; chemistry not given here) [compound 31]
% Indel Post-Editing (3 days post-editing): 3.555% and 3.026%

32 (guide TGCCGCTGGCCACGTTCGTG; chemistry not given here) [compound 32]
% Indel Post-Editing (3 days post-editing): 0.1665% and 0.1061%

29 (guide GCTGCGCAGCAGGGAGCGCA; chemistry not given here) [compound 29]
% Indel Post-Editing (3 days post-editing): 0.5165% and 0.5841%

3 (guide TCCCCGGCCCAGCCCCCTCC; chemistry not given here) [compound 3]
% Indel Post-Editing (3 days post-editing): 0.2836% and 0.473%

39 (guide GAGCGCACGGCTCGGCAGCG; chemistry not given here) [compound 39]
% Indel Post-Editing (3 days post-editing): 6.049% and 7.137%

24 (guide GGGCCGCGGAAAGGAAGGGG; chemistry not given here) [compound 24]
% Indel Post-Editing (3 days post-editing): 0.19% and 0.2632%

34 (guide GCGGTAGTGGCTGCGCAGCA; chemistry not given here) [compound 34]
% Indel Post-Editing (3 days post-editing): 27.04% and 29.27%

6 (guide GGGAGGGCCCGGAGGGGGCT; chemistry not given here) [compound 6]
% Indel Post-Editing (3 days post-editing): 0.3562% and 0.3112%

13 (guide CCGGGGACCCGGGAGGGGTC; chemistry not given here) [compound 13]
% Indel Post-Editing (5 days post-editing): 0.06603% and 0.05525%

25 (guide GGAAAGGAAGGGGAGGGGCT; chemistry not given here) [compound 25]
% Indel Post-Editing (3 days post-editing): 0.6945% and 1.088%

18 (guide GCCCCTCCCCTTCCTTTCCG; chemistry not given here) [compound 18]
% Indel Post-Editing (3 days post-editing): 2.299% and 1.045%

26 (guide GCTGCGCAGCCACTACCGCG; chemistry not given here) [compound 26]
% Indel Post-Editing (3 days post-editing): 9.609% and 9.23%

9 (guide GGCTGGGCCGGGGACCCGGG; chemistry not given here) [compound 9]
% Indel Post-Editing (5 days post-editing): 0.5674% and 0.398%

1 (guide TGGGAGGGCCCGGAGGGGGC; chemistry not given here) [compound 1]
% Indel Post-Editing (3 days post-editing): 0.1686% and 0.2057%

20 (guide GCGGGGCCGCGGAAAGGAAG; chemistry not given here) [compound 20]
% Indel Post-Editing (3 days post-editing): 0.1376% and 0.1734%

27 (guide TGGCCAGCGGCAGCACCTCG; chemistry not given here) [compound 27]
% Indel Post-Editing (3 days post-editing): 13.61% and 13.93%

40 (guide GCTCGGCAGCGGGGAGCGCG; chemistry not given here) [compound 40]
% Indel Post-Editing (3 days post-editing): 14.09% and 12.53%

28 (guide GGGGAGCGCGCGGCATCGCG; chemistry not given here) [compound 28]
% Indel Post-Editing (3 days post-editing): 1.175% and 1.846%

19 (guide TGCCTGAAACTCGCGCCGCG; chemistry not given here) [compound 19]
% Indel Post-Editing (3 days post-editing): 0.3096% and 0.2587%

22 (guide GGCGGGGCCGCGGAAAGGAA; chemistry not given here) [compound 22]
% Indel Post-Editing (3 days post-editing): 1.212% and 0.3044%

23 (guide GCCGCGGAAAGGAAGGGGAG; chemistry not given here) [compound 23]
% Indel Post-Editing (3 days post-editing): 0.7353% and 0.8087%

11 (guide CTGGGCCGGGGACCCGGGAG; chemistry not given here) [compound 11]
% Indel Post-Editing (5 days post-editing): 0.2288% and 0.2733%

35 (guide CTACCGCGAGGTGCTGCCGC; chemistry not given here) [compound 35]
% Indel Post-Editing (3 days post-editing): 1.038% and 1.547%

4 (guide GGGGCTGGGAGGGCCCGGAG; chemistry not given here) [compound 4]
% Indel Post-Editing (3 days post-editing): 0.2787% and 0.05972%

37 (guide GGGAGCGCACGGCTCGGCAG; chemistry not given here) [compound 37]
% Indel Post-Editing (3 days post-editing): 5.208% and 5.478%

36 (guide GCGGCAGCACCTCGCGGTAG; chemistry not given here) [compound 36]
% Indel Post-Editing (3 days post-editing): 2.113% and 1.684%

38 (guide GGAGCGCACGGCTCGGCAGC; chemistry not given here) [compound 38]
% Indel Post-Editing (3 days post-editing): 0.8353% and 1.797%

16 (guide GGCCGCGGAAAGGAAGGGGA; chemistry not given here) [compound 16]
% Indel Post-Editing (3 days post-editing): 0.1942% and 0.09556%

33 (guide CGCCGCACGAACGTGGCCAG; chemistry not given here) [compound 33]
% Indel Post-Editing (3 days post-editing): 2.925% and 2.489%

14 (guide CGCCCCGTCCCGACCCCTCC; chemistry not given here) [compound 14]
% Indel Post-Editing (5 days post-editing): 0.04851% and 0.09263%
